# What was measured:
# Escherichia coli R^+TEM = assay: Agar dilution checkerboard growth test (Caseinpepton-Fleischextrakt-Bouillon-Agar, ~3x10^4 CFU/ml, 18 h, 37 °C); assay type: cell-based
# Method: (§1) Ein Caseinpepton-Fleischextrakt-Bouillon-Agar mit einem Gehalt der angegebenen Menge der nachstehend angegebenen Substanzen A und B wird mit dem Testbakterium geimpft (~3x10^4CFU/ml). Nach der Inkubation während 18 Stunden bei 37 °C wird der Wuchszustand der Testbakterien untersucht. Die Ergebnisse sind in den Tabellen zusammengestellt. In jeder Tabelle bedeutet (+), daß das Testbakterium wächst, und (-) bedeutet, daß das Testbakterium nicht wächst. Man erkennt aus diesen Tabellen, daß die Kombination von D-α-[3-(2-p-Aminosulfonylanilino-4-hydroxy-5-pyrimidinyl)-ureido]-p-hydroxy-benzylpenicillin-Natrium = A bzw.
# Kl. pneumoniae 1082 E = assay: as above; assay type: cell-based
# Method: as §1
structure (smiles),measurement,setting,value
"CC1(C)S[C@@H]2[C@H](NC(=O)[C@H](NC(=O)Nc3cnc(Nc4ccc(S(N)(=O)=O)cc4)nc3O)c3ccc(O)cc3)C(=O)N2[C@H]1C(=O)O [Substanz A, D-α-[3-(2-p-Aminosulfonylanilino-4-hydroxy-5-pyrimidinyl)-ureido]-p-hydroxy-benzylpenicillin-Natrium]",Wuchszustand der Testbakterien,"Escherichia coli R^+TEM; C 0 µg/ml, A 0,5 µg/ml",+
same,Wuchszustand der Testbakterien,"Escherichia coli R^+TEM; C 0 µg/ml, A 1 µg/ml",+
same,Wuchszustand der Testbakterien,"Escherichia coli R^+TEM; C 0 µg/ml, A 2 µg/ml",+
same,Wuchszustand der Testbakterien,"Escherichia coli R^+TEM; C 0 µg/ml, A 4 µg/ml",+
same,Wuchszustand der Testbakterien,"Escherichia coli R^+TEM; C 0 µg/ml, A 8 µg/ml",+
same,Wuchszustand der Testbakterien,"Escherichia coli R^+TEM; C 0 µg/ml, A 16 µg/ml",+
same,Wuchszustand der Testbakterien,"Escherichia coli R^+TEM; C 0 µg/ml, A 32 µg/ml",+
same,Wuchszustand der Testbakterien,"Escherichia coli R^+TEM; C 0 µg/ml, A 64 µg/ml",+
same,Wuchszustand der Testbakterien,"Escherichia coli R^+TEM; C 0 µg/ml, A 128 µg/ml",+
same,Wuchszustand der Testbakterien,"Kl. pneumoniae 1082 E; C 0 µg/ml, A 0,5 µg/ml",+
same,Wuchszustand der Testbakterien,"Kl. pneumoniae 1082 E; C 0 µg/ml, A 0,25 µg/ml",+
same,Wuchszustand der Testbakterien,"Kl. pneumoniae 1082 E; C 0 µg/ml, A 1 µg/ml",+
same,Wuchszustand der Testbakterien,"Kl. pneumoniae 1082 E; C 0 µg/ml, A 2 µg/ml",+
same,Wuchszustand der Testbakterien,"Kl. pneumoniae 1082 E; C 0 µg/ml, A 4 µg/ml",+
same,Wuchszustand der Testbakterien,"Kl. pneumoniae 1082 E; C 0 µg/ml, A 8 µg/ml",+
same,Wuchszustand der Testbakterien,"Kl. pneumoniae 1082 E; C 0 µg/ml, A 16 µg/ml",+
same,Wuchszustand der Testbakterien,"Kl. pneumoniae 1082 E; C 0 µg/ml, A 32 µg/ml",+
same,Wuchszustand der Testbakterien,"Kl. pneumoniae 1082 E; C 0 µg/ml, A 64 µg/ml",+
Cn1nnnc1SCC1=C(C(=O)O)N2C(=O)[C@@H](NC(=O)[C@H](NC(=O)Nc3cnc(Nc4ccc(S(N)(=O)=O)cc4)nc3O)c3ccc(O)cc3)[C@H]2SC1 [Substanz B],Wuchszustand der Testbakterien,"Escherichia coli R^+TEM; C 0 µg/ml, B 0,5 µg/ml",+
same,Wuchszustand der Testbakterien,"Escherichia coli R^+TEM; C 0 µg/ml, B 0,06 µg/ml",+
same,Wuchszustand der Testbakterien,"Escherichia coli R^+TEM; C 0 µg/ml, B 0,25 µg/ml",+
same,Wuchszustand der Testbakterien,"Escherichia coli R^+TEM; C 0 µg/ml, B 1 µg/ml",+
same,Wuchszustand der Testbakterien,"Escherichia coli R^+TEM; C 0 µg/ml, B 2 µg/ml",+
same,Wuchszustand der Testbakterien,"Escherichia coli R^+TEM; C 0 µg/ml, B 4 µg/ml",+
same,Wuchszustand der Testbakterien,"Escherichia coli R^+TEM; C 0 µg/ml, B 8 µg/ml",-
same,Wuchszustand der Testbakterien,"Escherichia coli R^+TEM; C 0 µg/ml, B 0,125 µg/ml",+
same,Wuchszustand der Testbakterien,"Kl. pneumoniae 1082 E; C 0 µg/ml, B 0,5 µg/ml",+
same,Wuchszustand der Testbakterien,"Kl. pneumoniae 1082 E; C 0 µg/ml, B 0,25 µg/ml",+
same,Wuchszustand der Testbakterien,"Kl. pneumoniae 1082 E; C 0 µg/ml, B 1 µg/ml",+
same,Wuchszustand der Testbakterien,"Kl. pneumoniae 1082 E; C 0 µg/ml, B 2 µg/ml",+
same,Wuchszustand der Testbakterien,"Kl. pneumoniae 1082 E; C 0 µg/ml, B 4 µg/ml",+
same,Wuchszustand der Testbakterien,"Kl. pneumoniae 1082 E; C 0 µg/ml, B 8 µg/ml",+
same,Wuchszustand der Testbakterien,"Kl. pneumoniae 1082 E; C 0 µg/ml, B 16 µg/ml",+
same,Wuchszustand der Testbakterien,"Kl. pneumoniae 1082 E; C 0 µg/ml, B 32 µg/ml",+
same,Wuchszustand der Testbakterien,"Kl. pneumoniae 1082 E; C 0 µg/ml, B 64 µg/ml",+
"O=C(O)[C@H]1/C(=C/CO)O[C@@H]2CC(=O)N21 [Substanz C, Lithium-Z-(2R,5R)-3-(ß-hydroxyäthyliden)-7-oxo-4-oxa-1-aza-bicyclo[3,2,0]-heptan-2-carboxylat, reference compound]",Wuchszustand der Testbakterien,"Escherichia coli R^+TEM; C 0,5 µg/ml, B 0 µg/ml",+
same,Wuchszustand der Testbakterien,"Escherichia coli R^+TEM; C 0,25 µg/ml, B 0 µg/ml",+
same,Wuchszustand der Testbakterien,"Escherichia coli R^+TEM; C 1 µg/ml, A 0 µg/ml",+
same,Wuchszustand der Testbakterien,"Escherichia coli R^+TEM; C 1 µg/ml, B 0 µg/ml",+
same,Wuchszustand der Testbakterien,"Escherichia coli R^+TEM; C 2 µg/ml, A 0 µg/ml",+
same,Wuchszustand der Testbakterien,"Escherichia coli R^+TEM; C 2 µg/ml, B 0 µg/ml",+
same,Wuchszustand der Testbakterien,"Escherichia coli R^+TEM; C 4 µg/ml, A 0 µg/ml",+
same,Wuchszustand der Testbakterien,"Escherichia coli R^+TEM; C 4 µg/ml, B 0 µg/ml",+
same,Wuchszustand der Testbakterien,"Escherichia coli R^+TEM; C 8 µg/ml, A 0 µg/ml",+
same,Wuchszustand der Testbakterien,"Escherichia coli R^+TEM; C 8 µg/ml, B 0 µg/ml",+
same,Wuchszustand der Testbakterien,"Escherichia coli R^+TEM; C 16 µg/ml, A 0 µg/ml",+
same,Wuchszustand der Testbakterien,"Escherichia coli R^+TEM; C 16 µg/ml, B 0 µg/ml",+
same,Wuchszustand der Testbakterien,"Escherichia coli R^+TEM; C 32 µg/ml, A 0 µg/ml",-
same,Wuchszustand der Testbakterien,"Escherichia coli R^+TEM; C 32 µg/ml, B 0 µg/ml",-
same,Wuchszustand der Testbakterien,"Kl. pneumoniae 1082 E; C 1 µg/ml, A 0 µg/ml",+
same,Wuchszustand der Testbakterien,"Kl. pneumoniae 1082 E; C 1 µg/ml, B 0 µg/ml",+
same,Wuchszustand der Testbakterien,"Kl. pneumoniae 1082 E; C 2 µg/ml, A 0 µg/ml",+
same,Wuchszustand der Testbakterien,"Kl. pneumoniae 1082 E; C 2 µg/ml, B 0 µg/ml",+
same,Wuchszustand der Testbakterien,"Kl. pneumoniae 1082 E; C 4 µg/ml, A 0 µg/ml",+
same,Wuchszustand der Testbakterien,"Kl. pneumoniae 1082 E; C 4 µg/ml, B 0 µg/ml",+
same,Wuchszustand der Testbakterien,"Kl. pneumoniae 1082 E; C 8 µg/ml, A 0 µg/ml",+
same,Wuchszustand der Testbakterien,"Kl. pneumoniae 1082 E; C 8 µg/ml, B 0 µg/ml",+
same,Wuchszustand der Testbakterien,"Kl. pneumoniae 1082 E; C 16 µg/ml, A 0 µg/ml",+
same,Wuchszustand der Testbakterien,"Kl. pneumoniae 1082 E; C 16 µg/ml, B 0 µg/ml",+
same,Wuchszustand der Testbakterien,"Kl. pneumoniae 1082 E; C 32 µg/ml, A 0 µg/ml",+
same,Wuchszustand der Testbakterien,"Kl. pneumoniae 1082 E; C 32 µg/ml, B 0 µg/ml",+
same,Wuchszustand der Testbakterien,"Kl. pneumoniae 1082 E; C 64 µg/ml, A 0 µg/ml",-
same,Wuchszustand der Testbakterien,"Kl. pneumoniae 1082 E; C 64 µg/ml, B 0 µg/ml",-

# From patent publication EP0050253A1, “Antibiotic pharmaceutical composition” (priority 1980, dated 1982)
